Values of other authors, collected in PMC6257630, “Photoactivatable Cell-Selective Dinuclear trans-Diazidoplatinum(IV) Anticancer Prodrugs” (Inorganic Chemistry, 2018).

Tested on: cisplatin-resistant A2780cis cells
Set-up: method as in PMID 20677309
Conditions: irradiation with UVA (365 nm); cited from earlier work

## trans,trans,trans-[Pt(N3)2(OH)2(py)2] [FM-190]
  IC50: 14.5 µM
